Results from ChEMBL document CHEMBL1138724, “Synthesis and anticonvulsant activity of new 2-substituted-5- [2-(2-fluorophenoxy)phenyl]-1,3,4-oxadiazoles and 1,2,4-triazoles” (Bioorg Med Chem Lett, 2004).

How the values were obtained:
Mus musculus [1] = species: Mus musculus; test: Effective dose required to protect mice against convulsion induced electroshock was determined by MES test; assay type: functional
Mus musculus [2] = test: Effective dose required to protect mice against convulsion induced by a lethal dose of PTZ (100 mg/kg) was determined; assay type: functional
[3] = Lethal dose in mice; assay type: toxicity; details: mouse, in vivo
Mus musculus [4] = test: Effective dose required to protect mice against convulsion induced electroshock was determined by MES test in the presence of 10 mg/kg flumazenil
Mus musculus [5] = test: Effective dose required to protect mice against convulsion induced by a lethal dose of PTZ (100 mg/kg) was determined in the presence of 10 mg/kg flumazenil; assay type: functional

| SMILES | ED50 (Mus musculus [1]) | ED50 (Mus musculus [2]) | LD50 [3] | ED50 (Mus musculus [4]) | ED50 (Mus musculus [5]) |
| --- | --- | --- | --- | --- | --- |
| Fc1ccccc1Oc1ccccc1-c1nnc(S)o1 | 43.1 mg/kg | > 100 mg/kg | > 300 mg/kg | – | – |
| CN1C(=O)CN=C(c2ccccc2)c2cc(Cl)ccc21 [DIAZEPAM] | – | 1.87 mg/kg | – | 1.57 mg/kg | – |
| Nc1nnc(-c2ccccc2Oc2ccccc2F)o1 | 9.57 mg/kg | – | > 300 mg/kg | – | 39.2 mg/kg |
| CCOc1n[nH]c(-c2ccccc2Oc2ccccc2F)n1 | – | 84.8 mg/kg | > 300 mg/kg | – | – |
| Oc1nnc(-c2ccccc2Oc2ccccc2F)o1 | > 100 mg/kg | – | > 300 mg/kg | – | – |
| CSc1nnc(-c2ccccc2Oc2ccccc2F)o1 | > 100 mg/kg | – | > 300 mg/kg | – | – |
| Fc1ccccc1Oc1ccccc1-c1n[nH]c(S)n1 | 92 mg/kg | > 100 mg/kg | > 300 mg/kg | – | – |
